Source: patent US8574563B2 (Bristol-Myers Squibb Company, priority 2006, dated 2013)

System: HCV 1b-377-neo replicon cells
Assay: HCV replicon assay, HCV 1b-377-neo replicon cells (1b FRET)
Assay type: cell-based, Hepatitis C virus genotype 1b
Settings: Hepatitis C virus, HCV 1b-377-neo replicon cells; HCV 1b genotype; read-out: EC50 range against HCV 1b (Table 2, Range)
Procedure, shortened: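 Compounds tested in HCV genotype 1b-377-neo replicon cells with a FRET read-out. Cells resistant to a reference NS5A inhibitor through a Y2065H NS5A mutation were run alongside wild-type cells.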

Row | Structure (SMILES) | EC50
1 | Cc1cc(CC(=O)N2CCC[C@H]2c2ncc(-c3ccc(-c4ccc(-c5cnc([C@@H]6CCCN6C(=O)[C@@H](c6ccccc6)N6CCCCC6)[nH]5)cc4)cc3)[nH]2)n[nH]1 [Example 107-16, 1-((1R)-2-((2S)-2-(5-(4′-(2-((2S)-1-((5-methyl-1H-pyrazo1-3-yl)acetyl)-2-pyrrolidinyl)-1H-imidazol-5-yl)-4-biphenylyl)-1H-imidazol-2-yl)-1-pyrrolidinyl)-2-oxo-1-phenylethyl) piperidine] | 0.001 to 0.999 nM
2 | O=C([C@@H]1CCN(Cc2ccccc2)C1)N1CCC[C@H]1c1ncc(-c2ccc(-c3ccc(-c4cnc([C@@H]5CCCN5C(=O)[C@@H](c5ccccc5)N5CCCCC5)[nH]4)cc3)cc2)[nH]1 [Example 107-17] | 0.001 to 0.999 nM
3 | O=C([C@H]1CCN(Cc2ccccc2)C1)N1CCC[C@H]1c1ncc(-c2ccc(-c3ccc(-c4cnc([C@@H]5CCCN5C(=O)[C@@H](c5ccccc5)N5CCCCC5)[nH]4)cc3)cc2)[nH]1 [Example 107-18, 1-((1R)-2-((2S)-2-(5-(4′-(2-((2S)-1-(((3S)-1-benzyl-3-pyrrolidinyl)carbonyl)-2-pyrrolidinyl)-1H-imidazol-5-yl)-4-biphenylyl)-1H-imidazol-2-yl)-1-pyrrolidinyl)-2-oxo-1-phenylethyl) piperidine] | 0.001 to 0.999 nM
4 | CO[C@@H](C(=O)N1CCC[C@H]1c1ncc(-c2ccc(-c3ccc(-c4cnc([C@@H]5CCCN5C(=O)[C@@H](c5ccccc5)N5CCCCC5)[nH]4)cc3)cc2)[nH]1)c1ccccc1 [Example 107-19, 1-((1R)-2-((2S)-2-(5-(4′-(2-((2S)-1-((2R)-2-methoxy-2-phenylacetyl)-2-pyrrolidinyl)-1H-imidazol-5-yl)-4-biphenylyl)-1H-imidazol-2-yl)-1-pyrrolidinyl)-2-oxo-1-phenylethyl) piperidine] | 0.001 to 0.999 nM
5 | CO[C@H](C(=O)N1CCC[C@H]1c1ncc(-c2ccc(-c3ccc(-c4cnc([C@@H]5CCCN5C(=O)[C@@H](c5ccccc5)N5CCCCC5)[nH]4)cc3)cc2)[nH]1)c1ccccc1 [Example 107-20, 1-((1R)-2-((2S)-2-(5-(4′-(2-((2S)-1-((2S)-2-methoxy-2-phenylacetyl)-2-pyrrolidinyl)-1H-imidazol-5-yl)-4-biphenylyl)-1H-imidazol-2-yl)-1-pyrrolidinyl)-2-oxo-1-phenylethyl) piperidine] | 0.001 to 0.999 nM
6 | O=C([C@@H](c1ccccc1)N1CCCCC1)N1CCC[C@H]1c1ncc(-c2ccc(-c3ccc(-c4cnc([C@@H]5CCCN5C(=O)C5(c6ccccc6)CC5)[nH]4)cc3)cc2)[nH]1 [Example 107-22, 1-((1R)-2-oxo-1-phenyl-2-((2S)-2-(5-(4′-(2-((2S)-1-((1-phenylcyclopropyl)carbonyl)-2-pyrrolidinyl)-1H-imidazol-5-yl)-4-biphenylyl)-1H-imidazol-2-yl)-1-pyrrolidinyl)ethyl)piperidine] | 0.001 to 0.999 nM
7 | CN(C)Cc1ccccc1CC(=O)N1CCC[C@H]1c1ncc(-c2ccc(-c3ccc(-c4cnc([C@@H]5CCCN5C(=O)[C@@H](c5ccccc5)N5CCCCC5)[nH]4)cc3)cc2)[nH]1 [Example 107-23, N,N-dimethyl-1-(2-(2-oxo-2-((2S)-2-(5-(4′-(2-((2S)-1-((2R)-2-phenyl-2-(1-piperidinyl)acetyl)-2-pyrrolidinyl)-1H-imidazol-5-yl)-4-biphenylyl)-1H-imidazol-2-yl)-1-pyrrolidinyl)ethyl)phenyl) methanamine] | 0.001 to 0.999 nM
8 | Cc1cc(CC(=O)N2CCC[C@H]2c2ncc(-c3ccc(-c4ccc(-c5cnc([C@@H]6CCCN6C(=O)[C@@H](c6ccccc6)N6CCCCC6)[nH]5)cc4)cc3)[nH]2)on1 [Example 107-24, 1-((1R)-2-((2S)-2-(5-(4′-(2-((2S)-1-((3-methyl-5-isoxazolyl)acetyl)-2-pyrrolidinyl)-1H-imidazol-5-yl)-4-biphenylyl)-1H-imidazol-2-yl)-1-pyrrolidinyl)-2-oxo-1-phenylethyl) piperidine] | 0.001 to 0.999 nM
9 | Cc1nc(CC(=O)N2CCC[C@H]2c2ncc(-c3ccc(-c4ccc(-c5cnc([C@@H]6CCCN6C(=O)[C@@H](c6ccccc6)N6CCCCC6)[nH]5)cc4)cc3)[nH]2)cs1 [Example 107-25, 1-((1R)-2-((2S)-2-(5-(4′-(2-((2S)-1-((2-methyl-1,3-thiazo1-4-yl)acetyl)-2-pyrrolidinyl)-1H-imidazol-5-yl)-4-biphenylyl)-1H-imidazol-2-yl)-1-pyrrolidinyl)-2-oxo-1-phenylethyl) piperidine] | 0.001 to 0.999 nM
10 | O=C(Cc1ccccc1CN1CCOCC1)N1CCC[C@H]1c1ncc(-c2ccc(-c3ccc(-c4cnc([C@@H]5CCCN5C(=O)[C@@H](c5ccccc5)N5CCCCC5)[nH]4)cc3)cc2)[nH]1 [Example 107-26, 4-(2-(2-oxo-2-((2S)-2-(5-(4′-(2-((2S)-1-((2R)-2-phenyl-2-(1-piperidinyl)acetyl)-2-pyrrolidinyl)-1H-imidazol-5-yl)-4-biphenylyl)-1H-imidazol-2-yl)-1-pyrrolidinyl)ethyl)benzyl) morpholine] | 0.001 to 0.999 nM
11 | O=C(Cc1ccccc1CN1CCCC1)N1CCC[C@H]1c1ncc(-c2ccc(-c3ccc(-c4cnc([C@@H]5CCCN5C(=O)[C@@H](c5ccccc5)N5CCCCC5)[nH]4)cc3)cc2)[nH]1 [Example 107-27, 1-((1R)-2-oxo-1-phenyl-2-((2S)-2-(5-(4′-(2-((2S)-1-((2-(1-pyrrolidinylmethyl)phenyl)acetyl)-2-pyrrolidinyl)-1H-imidazol-5-yl)-4-biphenylyl)-1H-imidazol-2-yl)-1-pyrrolidinyl)ethyl)piperidine] | 0.001 to 0.999 nM
12 | O=C(Cc1ccccc1F)N1CCC[C@H]1c1ncc(-c2ccc(-c3ccc(-c4cnc([C@@H]5CCCN5C(=O)[C@@H](c5ccccc5)N5CCCCC5)[nH]4)cc3)cc2)[nH]1 [Example 107-28] | 0.001 to 0.999 nM
13 | CC(=O)N1CCC[C@H]1c1ncc(-c2ccc(-c3ccc(-c4cnc([C@@H]5CCCN5C(=O)[C@@H](c5ccccc5)N5CCCCC5)[nH]4)cc3)cc2)[nH]1 [Example 107-29, 1-1((1R)-2-((2S)-2-(5-(4′-(2-((2S)-1-acetyl-2-pyrrolidinyl)-1H-imidazol-5-yl)-4-biphenylyl)-1H-imidazol-2-yl)-1-pyrrolidinyl)-2-oxo-1-phenylethyl) piperidine] | 0.001 to 0.999 nM
14 | O=C(Cc1cccs1)N1CCC[C@H]1c1ncc(-c2ccc(-c3ccc(-c4cnc([C@@H]5CCCN5C(=O)[C@@H](c5ccccc5)N5CCCCC5)[nH]4)cc3)cc2)[nH]1 [Example 107-30, 1-((1R)-2-oxo-1-phenyl-2-((2S)-2-(5-(4′-(2-((2S)-1-(2-thienylacetyl)-2-pyrrolidinyl)-1H-imidazol-5-yl)-4-biphenylyl)-1H-imidazol-2-yl)-1-pyrrolidinyl)ethyl)piperidine] | 0.001 to 0.999 nM
15 | CN(C)[C@@H](C(=O)N1CCC[C@H]1c1ncc(-c2ccc(-c3ccc(-c4cnc([C@@H]5CCCN5C(=O)[C@@H](c5ccccc5F)N(C)C)[nH]4)cc3)cc2)[nH]1)c1ccccc1 [Example 107-31, (1R)-2-((2S)-2-(5-(4′-(2-((2S)-1-((2R)-2-(dimethylamino)-2-(2-fluorophenyl)acetyl)-2-pyrrolidinyl)-1H-imidazol-5-yl)-4-biphenylyl)-1H-imidazol-2-yl)-1-pyrrolidinyl)-N,N-dimethyl-2-oxo-1-phenylethanamine] | 0.001 to 0.999 nM
16 | CO[C@@H](C(=O)N1CCC[C@H]1c1ncc(-c2ccc(-c3ccc(-c4cnc([C@@H]5CCCN5C(=O)[C@@H](c5ccccc5F)N(C)C)[nH]4)cc3)cc2)[nH]1)c1ccccc1 [Example 107-32, (1R)-1-(2-fluorophenyl)-2-((2S)-2-(5-(4′-(2-((2S)-1-((2R)-2-methoxy-2-phenylacetyl)-2-pyrrolidinyl)-1H-imidazol-5-yl)-4-biphenylyl)-1H-imidazol-2-yl)-1-pyrrolidinyl)-N,N-dimethyl-2-oxoethanamine] | 0.001 to 0.999 nM
17 | CN(C)[C@@H](C(=O)N1CCC[C@H]1c1ncc(-c2ccc(-c3ccc(-c4cnc([C@@H]5CCCN5C(=O)C5(c6ccccc6)CC5)[nH]4)cc3)cc2)[nH]1)c1ccccc1F [Example 107-34, (1R)-1-(2-fluorophenyl)-N,N-dimethyl-2-oxo-2-((2S)-2-(5-(4′-(2-((2S)-1-((1-phenylcyclopropyl)carbonyl)-2-pyr-rolidinyl)-1H-imidazol-5-yl)-4-biphenylyl)-1H-imidazol-2-yl)-1-pyrrolidinyl)ethanamine] | 0.001 to 0.999 nM
18 | CN(C)[C@@H](C(=O)N1CCC[C@H]1c1ncc(-c2ccc(-c3ccc(-c4cnc([C@@H]5CCCN5C(=O)[C@@H](c5ccccc5Cl)N(C)C)[nH]4)cc3)cc2)[nH]1)c1ccccc1 [Example 107-35, (1R)-1-(2-chloro-phenyl)-2-((2S)-2-(5-(4′-(2-((2S)-1-((2R)-2-(dimethylamino)-2-phenylacetyl)-2-pyrrolidinyl)-1H-imidazol-5-yl)-4-biphenylyl)-1H-imidazol-2-yl)-1-pyrrolidinyl)-N,N-dimethyl-2-oxoethanamine] | 0.001 to 0.999 nM
19 | COC(=O)N[C@@H](C(=O)N1CCC[C@H]1c1ncc(-c2ccc(-c3ccc(-c4cnc([C@@H]5CCCN5C(=O)[C@@H](c5ccccc5Cl)N(C)C)[nH]4)cc3)cc2)[nH]1)c1ccccc1 [Example 107-36, methyl ((1R)-2-((2S)-2-(5-(4′-(2-((2S)-1-(2R)-2-(2-chlorophenyl)-2-(dimethylamino)acetyl)-2-pyrrolidinyl)-1H-imidazol-5-yl)-4-biphenylyl)-1H-imidazol-2-yl)-1-pyrrolidinyl)-2-oxo-1-phenylethyl) carbamate] | 0.001 to 0.999 nM
20 | CO[C@@H](C(=O)N1CCC[C@H]1c1ncc(-c2ccc(-c3ccc(-c4cnc([C@@H]5CCCN5C(=O)[C@@H](c5ccccc5Cl)N(C)C)[nH]4)cc3)cc2)[nH]1)c1ccccc1 [Example 107-37, (1R)-1-(2-chlorophenyl)-2-((2S)-2-(5-(4′-(2-((2S)-1-((2R)-2-methoxy-2-phenylacetyl)-2-pyrrolidinyl)-1H-imidazol-5-yl)-4-biphenylyl)-1H-imidazol-2-yl)-1-pyrrolidinyl)-N,N-dimethyl-2-oxoethanamine] | 0.001 to 0.999 nM
